Results as given in patent US6852755B1 (priority 1999, dated 2005).

Tested on: breast carcinoma xenograft (50% MDA MB361 cells expressing β-galactosidase plus 50% MDA MB361-STCPG2(O)3 cells expressing surface tethered carboxypeptidase G2 …)
Set-up: species or system Nu/Nu BalbC mouse
Conditions: mouse, in vivo

SMILES | time for which a 50% survival rate was provided | time up to which 50% survival was found post-treatment
O=C(O)CC[C@H](NC(=O)c1cc(F)c(N(CCI)CCI)c(F)c1)C(=O)O [Example 1, {3,5-difluoro-4-[bis(2-iodoethyl)amino]benzoyl}-L-glutamic acid] | over 200 days | –
O=C(O)CC[C@H](NC(=O)c1ccc(N(CCCl)CCCl)c(F)c1)C(=O)O [B, {3-fluoro-4-[bis(2-chloroethyl)amino]benzoyl}-L-glutamic acid] | – | about 70 days
